Reference: patent US20210260069A1, “IRE1a INHIBITOR IN COMBINATION WITH CANCER [sequence] AGENT FOR CANCER TREATMENT” (Fosun Orinove PharmaTech, Inc., priority 2018, published 2021)

What was measured:
XBP1s = assay: Determination of XBP1s level induced by various compounds (RT-qPCR splicing assay), several cell lines; format: cell-based, human; settings: for induction of XBP1s: in a time, cell or concentration dependent manner; for ER stress measured by XBP1s level (FIG. 6): Hep G2, MCF-7 and RPMI 8226 cells, 1, 2 or 4 hours
Experimental: (§1) This method applies to any mammalian cell line but was typically applied to human MM1s myeloma cells for EC50 and RPMI 8826 plasmacytoma cells for confirmation of selected compounds. Briefly, cells were grown in standard conditions and spread into 96 well tissue culture plates. Cells were treated with compounds with indicated concentration using serial dilutions. DTT (dithiothreitol) or compounds were added at the same time and cells were harvested after indicated hour's treatment. Cells treated with DTT alone were used as 100% XBP1s positive controls and cell left untreated were used as base line XBP1s level.
(§2) Splicing Assay: Total RNA was isolated from cells treated with compounds using Applied Biosystems RNAqueous kit. 1 μg of total RNA was reverse transcribed using Oligo dt (12-18) (Invitrogen). The cDNA was then amplified at 95° C. for 8 min and 30 sec, then 40 cycles at 95° C. for 15 sec and 63° C. for 1 min. Samples were run against a purified standard curve for both spliced and unspliced XBP1, and further normalized to internal house-keeping gene GAPDH.

MCF-7 cells = assay: XBP1s level induced in MCF-7 cells; format: cell-based, human
Experimental: as §1, §2
(§3) The same methods were used as above for Lestaurtinib.

Hepatoma cells = assay: XBP1s level induced in Hepatoma (Hep G2) cells; format: cell-based, human
Experimental: as §1, §2

A549 cells = assay: XBP1s level induced in A549 cells; format: cell-based, human
Experimental: as §1, with “Briefly,” for “This method applies to any mammalian cell line but was typically applied to human MM1s myeloma cells for EC50 and RPMI 8826 plasmacytoma cells for confirmation of selected compounds. Briefly,”
as §2, §3

RPMI 8226 cells = assay: XBP1s level induced in RPMI 8226 cells; format: cell-based, human
Experimental: as §1, with “Briefly,” for “This method applies to any mammalian cell line but was typically applied to human MM1s myeloma cells for EC50 and RPMI 8826 plasmacytoma cells for confirmation of selected compounds. Briefly,”
as §2, §3

MM1s cells = assay: XBP1s level induced in MM1s cells; format: cell-based, human
Experimental: as §1, §2, §3

[1] = tested on: human breast adenocarcinoma MDA-MB231 tumor cells; format: in vivo; settings: Orin 1001 300 mg/kg where given; paclitaxel 10 mg/kg iv weekly; n=10/group
Experimental: Orin 1001 was administered by oral gavage in combination with paclitaxel in a xenograft mouse model using female NCr nu/nu mice (n=10 in each group) injected subcutaneously with human breast adenocarcinoma MDA-MB231 tumor cells. To evaluate the effect of Orin 1001 in combination with paclitaxel, Orin 1001 was administered via oral gavage at 75, 150 or 300 mg/kg/day in combination with paclitaxel at 10 mg/kg iv, weekly (n=10/group) for up to 60 days.

[2] = tested on: human ovarian carcinoma A2780 tumor cells; assay: A2780 ovarian carcinoma xenograft (Example 18); format: in vivo, female NCr nu/nu mice; settings: Orin 1001 300 mg/kg/day oral 28 days; paclitaxel 15 mg/kg iv weekly; endpoint 2000 mm^3 or Day 60
Experimental: (§4) Orin 1001 was administered by oral gavage in a xenograft mouse model using female NCr nu/nu mice injected subcutaneously with human ovarian carcinoma A2780 tumor cells. Animals were assigned to 4 groups (n=6/group); Vehicle control administered by oral gavage for 28 days, Orin 1001 administered via oral gavage at 300 mg/kg/day for 28 consecutive days, paclitaxel administered weekly by iv at 15 mg/kg, or Orin 1001 administered in combination with paclitaxel.
The percent tumor growth delay was calculated using the following equation: TGD (%)=[T-C/C]×100, where T-C is the difference in time to tumor endpoint from Treated (T) and Control (C).

[3] = tested on: human glioblastoma U-87 MG tumor cells; assay: U-87 MG glioblastoma xenograft (Example 19); format: in vivo, female NCr nu/nu mice
Experimental: as §4, with “glioblastoma U-87 MG” for “ovarian carcinoma A2780”, “cells, a glioblastoma multiforme (GBM) cell line.” for “cells.”
The percent tumor growth delay was calculated using the following equation: TGD (%)=[T-C/C]×100; where T-C is the difference in time to tumor endpoint from Treated (T) and Control (C).
The time to tumor endpoint (TTE) for each animal was further calculated using the following equation: TTE (days)=log 10 (endpoint volume, mm^3)-b/m, where b is the intercept and m is the slope of the line obtained by linear regression of the log-transformed tumor growth data set.

Hep3B-Luc cells = assay: Orthotopic Hep3B-luc human liver xenograft model (Example 22); format: in vivo, female BALB/c nude mice
Experimental: The tumor was inoculated by injecting Hep3B-Luc cells (established by WuXi AppTec R&D center) mixed with BD Matrigel in 20 μl (PBS:Matrigel=1:1) into the left lobe of the liver. […] Sorafenib was formulated with Cremophor® EL/ethanol (1:1) and purified water to form a solution of 9 mg/ml. […] Tumor weight was measured at the termination of study. T/Cweight value (in percent) was calculated using the formula: T/Cweight%=Tweight/Cweight×100%, while Tweight and Cweight were the mean tumor weights of the treated and the vehicle control groups, respectively.

human liver HUH-7 cells = assay: Subcutaneous HUH-7 liver cancer xenograft model, survival (Example 23); format: in vivo, Female BALB/c nude mice
Experimental: Female BALB/c nude mice were subcutaneously inoculated with human liver HUH-7 cells (from JCRB) to establish a xenograft model of liver cancer. The scheduled administration cycle was 28 days. Animals were assigned into 4 groups (n=10/group): one vehicle group, two single treatment groups (Orin 1001 administered at 80 mg/kg/day q.d. for 28 days; Sorafenib administered following a dose regimen of 18.25 mg/kg/day q.d. for 5 days, then 25 mg/kg/day q.d. for 3 days, and then 45 mg/kg/day q.d. for 20 days, consecutively) and one combination treatment group (sorafenib administered following a dose regimen of 18.25 mg/kg/day q.d. for 5 days, then 25 mg/kg/day q.d. for 3 days, and then 45 mg/kg/day q.d. for 20 days, consecutively, whilst combined with Orin 1001 administered q.d. at a dose of 80 mg/kg/day for 28 days). All vehicle or administration treatments were given via oral gavage. Sorafenib was formulated with Kolliphor® EL/ethanol (2/1, v/v) and water. Orin 1001 was dissolved with cellulose microcrystalline and sucrose in purified water to form as suspension. The mice were euthanized if a tumor volume achieved over 2000 mm^3. Otherwise the experiment ended on the 6th day after the last administration.

RPMI 8226 tumor cells = assay: Intratumoral XBP-1 spliced effect in Velcade treated RPMI xenografts; format: in vivo, Nude mice; settings: Velcade 0.8 mg/kg IV on day 21 and day 24, RPMI 8226 xenograft
Experimental: The mice were treated again on the 24th day with Velcade®. On Day 27, the mice were treated with Orin 1001 at 30 mg/kg PO, four hours later the mice were sacrificed as in Example 25, and tumor tissues were isolated. In a similar way as described for the liver PD test in Example 25, RNA extraction and RT-PCR analysis gave the results as shown FIG. 13.
BALB/c mice were injected intraperitoneally with 100 microliters at an equivalent dose of 1 mg/kg tunicamycin solution. Two hours after tunicamycin injection, mice were dosed with compound of interest either PO or IV. Following 2 hours for PO delivery of compound, mice were euthanized according to IACUC protocols using CO2 from a […] source. A 1 cm^3 fragment of the liver for homogenization and extraction of the RNA were collected for further analysis. Total RNA is harvested from cells or tissue using TRIzol according to the manufacturer's procedures. After ethanol precipitation and resuspension of the RNA, RiboGreen (Invitrogen) is used to quantify the yield and normalize the RNA concentration in the source tube containing isolated RNA. RT-PCR is performed by Oligo(dT) priming, and SuperScript II (Invitrogen) transcription using the Amplitaq Gold Kit (Applied Biosystems) according to the manufacturer's protocols. […]

HT-29 cells = assay: XBP1s level induced in HT-29 cells; format: cell-based, human
Experimental: as §1, §2, §3

[4] = Orin 1001 300 mg/kg/day oral 28 days, paclitaxel 15 mg/kg iv weekly, endpoint 2000 mm^3 or Day 60

C=CCNC1=C2C[C@@H](C)C[C@H](OC)[C@H](O)[C@@H](C)/C=C(\C)[C@H](OC(N)=O)[C@@H](OC)/C=C\C=C(/C)C(=O)NC(=CC1=O)C2=O [17-AAG]
induction of XBP1s (XBP1s): able to induce XBP1s
levels of XBP1s (MCF-7 cells; 1 hour of treatment): high levels
levels of XBP1s (MCF-7 cells; 2 hours of treatment): modest levels
levels of XBP1s (MCF-7 cells; 4 hours of treatment): low levels
levels of XBP1s (Hepatoma cells; 1 hour of treatment): high levels
levels of XBP1s (Hepatoma cells; 2 hours of treatment): modest levels
levels of XBP1s (Hepatoma cells; 4 hours of treatment): low levels

COc1cc2ncnc(Nc3ccc(F)c(Cl)c3)c2cc1OCCCN1CCOCC1 [Gefitinib]
induction of XBP1s (XBP1s): able to induce XBP1s
levels of XBP1s (A549 cells; 1 hour of treatment): increasing
levels of XBP1s (A549 cells; 2 hours of treatment): highest levels

Nc1ccn([C@@H]2O[C@H](CO)[C@@H](O)C2(F)F)c(=O)n1 [Gemcitabine]
induction of XBP1s (XBP1s): able to induce XBP1s
levels of XBP1s (RPMI 8226 cells; 1 hour of treatment): low levels
levels of XBP1s (RPMI 8226 cells; 2 hours of treatment): low levels
levels of XBP1s (RPMI 8226 cells; 4 hours of treatment): high levels

Cc1cn(-c2cc(NC(=O)c3ccc(C)c(Nc4nccc(-c5cccnc5)n4)c3)cc(C(F)(F)F)c2)cn1 [Nilotinib]
induction of XBP1s (XBP1s): able to induce XBP1s
XBP1s induced (MM1s cells; 1 hour of treatment): modest amounts
XBP1s induced (MM1s cells; 2 hours of treatment): greater than 50%
XBP1s induced (MM1s cells; 4 hours of treatment): modest amounts

CC(=O)O[C@H]1C(=O)[C@@]2(C)[C@H]([C@H](OC(=O)c3ccccc3)[C@]3(O)C[C@H](OC(=O)[C@H](O)[C@@H](NC(=O)c4ccccc4)c4ccccc4)C(C)=C1C3(C)C)[C@]1(OC(C)=O)CO[C@@H]1C[C@@H]2O [Paclitaxel]
induction of XBP1s (XBP1s): able to induce XBP1s
levels of XBP1s (RPMI 8226 cells; 1 hour of treatment): high levels
levels of XBP1s (RPMI 8226 cells; 2 hours of treatment): modest levels
levels of XBP1s (RPMI 8226 cells; 4 hours of treatment): modest levels
partial regressions [1]: 1
percent tumor growth delay (TGD) [2]: 40%
percent tumor growth delay (TGD) [3, 4]: 17%
time to tumor endpoint (TTE) [3, 4]: 30.2 days
tumor delay effect over the control ([3]; each agent alone): not very significant

CNC(=O)c1cc(Oc2ccc(NC(=O)Nc3ccc(Cl)c(C(F)(F)F)c3)cc2)ccn1 [Sorafenib]
induction of XBP1s (XBP1s): able to induce XBP1s
levels of XBP1s (A549 cells; 1 hour of treatment): highest levels
levels of XBP1s (A549 cells; 2 hours of treatment): highest levels
levels of XBP1s (A549 cells; 4 hours of treatment): modest levels
T/Cweight (%) (Hep3B-Luc cells; mean tumor weight treated / vehicle control, day 28): 19%
Tumor Weight (g) at day 28 (Hep3B-Luc cells; oral gavage 28 consecutive days, Orin 1001 80 mg/kg/day, sorafenib 45 mg/kg/day): 0.91 ± 0.29 g
Median Survival Time (MST) (human liver HUH-7 cells; Orin 1001 80 mg/kg/day q.d. 28 days, sorafenib 18.25/25/45 mg/kg, Kaplan-Meier): 24 days
ILS (%) (increase of life span) (human liver HUH-7 cells; versus vehicle group (group 1)): 20%

CO[C@H]1C[C@@H]2CC[C@@H](C)[C@@](O)(O2)C(=O)C(=O)N2CCCC[C@H]2C(=O)O[C@H]([C@H](C)C[C@@H]2CC[C@@H](OC(=O)C(C)(CO)CO)[C@H](OC)C2)CC(=O)[C@H](C)/C=C(\C)[C@@H](O)[C@@H](OC)C(=O)[C@H](C)C[C@H](C)/C=C/C=C/C=C/1C [Torisel®, Temsirolimus]
ER stress measured by XBP1s level (FIG. 6) (XBP1s): enhanced
induction of XBP1s (XBP1s): able to induce XBP1s
levels of XBP1s (A549 cells; 1 hour of treatment): high levels
levels of XBP1s (A549 cells; 2 hours of treatment): modest levels
levels of XBP1s (A549 cells; 4 hours of treatment): high levels

Clc1ccc(Nc2nnc(Cc3ccncc3)c3ccccc23)cc1 [Vatalinib]
ER stress measured by XBP1s level (FIG. 6) (XBP1s): enhanced
induction of XBP1s (XBP1s): able to induce XBP1s

CC(C)C[C@H](NC(=O)[C@H](Cc1ccccc1)NC(=O)c1cnccn1)B(O)O [Velcade®, [(1R)-3-methyl-1-[[(2S)-1-oxo-3-phenyl-2-[(pyrazinylcarbonyl)amino]propyl]amino]butyl] boronic acid]
level of XBP1s in tumor (RPMI 8226 tumor cells): increased the level of XBP1s

O=C(CCCCCCC(=O)Nc1ccccc1)NO [Vorinostat]
induction of XBP1s (XBP1s): able to induce XBP1s
levels of XBP1s (HT-29 cells; 1 hour of treatment): high levels
levels of XBP1s (HT-29 cells; 2 hours of treatment): little
levels of XBP1s (HT-29 cells; 4 hours of treatment): little
